Assay results: US4293489A, “Derivatives of A-30912A nucleus” (Eli Lilly and Company, priority 1980, dated 1981)
Read-outs that look alike come from different tables or passages of the source. Starred links: 1 amine or outer side, 2 acyl side, 3 side chain; linkers in the order of their positions; H or OH if unused. Positions of bridges follow the written chain, without caps; N, C: chain ends. Non-standard residues stand in square brackets, D forms with d. Residues, ends and D or L forms follow the SMILES beside them. *: point of attachment. Orn(4R-OH,5R-OH) = O=C([C@H](C[C@@H](O)[C@@H](O)N[*:3])N[*:1])[*:2]; hTyr(3S-OH,4S-OH) = N[C@H](C(=O)O)[C@H](O)[C@@H](O)c1ccc(O)cc1; Benzoyl(4-dodecyloxy) = CCCCCCCCCCCCOc1ccc(C(=O)*)cc1; Benzoyl(4-OC10H21) = CCCCCCCCCCOc1ccc(C(=O)*)cc1; Pro(3S-OH,4S-Me) = C[C@H]1CN[C@H](C(=O)O)[C@H]1O; Benzoyl(4-octyloxy) = CCCCCCCCOc1ccc(C(=O)*)cc1; X28 = CCCCCCCC[S+]([O-])c1ccc(C(=O)*)cc1; X24 = CCCCCCCCCCCCCCOc1cccc(C(=O)*)c1; X27 = CCCCCCCCCCCCOc1cccc(CC(=O)*)c1; X11 = CCCCCCCCOc1ccc(OCC(=O)*)cc1; Hyp = O=C(O)[C@@H]1C[C@@H](O)CN1

Columns and labels:
[1] = test system: Candida albicans A-26; test: Therapeutic activity against Candida albicans A-26 infection in X-irradiated mice, lowest active dose; assay type: in vivo; details: A26, light or radiation study, sc
Experimental: (§1) The results of in vivo tests to evaluate the effectiveness of the compounds of Examples 3 and 4 against an infection caused by Candida albicans A-26 in mice are given in Table 13, where activity is measured by the ED50 value (the dose in mg/kg. required to cure 50% of the test animals). In a separate test, the results of which are also summarized in Table 13, activity is indicated by the lowest dose at which a significant anti-fungal effect is observed. In this test, groups of male albino mice (specific pathogen free), weighing 18 to 20 grams, are infected intravenously with Candida albicans A-26. The animals are X-irradiated 24 hours prior to infection at about 50 roentgens per minute for 8 minutes (400 total dose) to reduce immune responses to the infecting organism. At 0, 4, and 24 hours post infection each group of mice is given graded doses subcutaneously of the test compound as a suspension in 33% polyethylene glycol (PEG)-water. The day of death for each animal is recorded.
(§2) *Dosage Schedules: A. = 40, 20, 15 and 10 mg/kg; Dosages given 0, 4, and
(§3) 24 hours post injection as suspension of test compound in 30% PEGH2
(§4) O. Number of mice receiving test compounds at each dosage level: 6 mice
(§5) per group. Number of mice in control (untreated) group: 10 mice per group

[2] = test system: Candida albicans A-26; test: Therapeutic activity against Candida albicans A-26 infection in mice, ED50; assay type: in vivo; details: doses 0, 4 and 24 hours post infection, increase in survival time vs control, Reed-Muench
Experimental: as §1, §2, §3, §4, §5
**As measured by increase in survival time of treated animals versus
control, calculated by method of Reed v Mueuch, American J. Hygiene, 27,

[3] = test system: Candida albicans A-26; test: Agar plate disc diffusion test, MIC per disc; assay type: cell-based; details: 0.1M sodium borate, pH 7.5, 24 hours, 30° C.
Experimental: (§6) Tables 10 and 11 give the results of the testing in vitro of the compounds of Examples 3 and 4 by agar-plate disc-diffusion methods. In Table 10 activity is measured by the size (diameter in mm) of the observed zone of inhibition of the microorganism produced by the test compound. In Table 11, activity is measured by the minimal inhibitory concentration (MIC) of the substance (μg/disc) required to inhibit growth of the test organism. Table 12 gives the results of the testing in vitro of the p-(n-octyloxy)benzoyl derivative of A30912A nucleus [Formula III, R^1 is p-(n-octyloxy)benzoyl] against five strains of Candida albicans by the agar dilution method. In Table 12 activity is measured by the minimal inhibitory concentration (MIC) of the substance (μg/ml) required to inhibit the test organism.
(§7) ^(a) Compounds were suspended in 0.1M sodium borate solution, pH 7.5.
(§8) The compounds were tested at 20 μg/disc at top level and at twofold
(§9) dilutions until end points were reached. Incubation: 24 hours; 30°

[4] = test system: Trychophyton mentagrophyes #6; test: Agar plate disc diffusion test, MIC per disc; assay type: cell-based, Trichophyton mentagrophytes; details: 0.1M sodium borate, pH 7.5, 24 hours, 30° C., * measurable zones with regrowth of organism around disc
Experimental: as §6, §7, §8, §9
*Measurable zones of inhibition with regrowth of organism around disc.

[5] = X-irradiated mice, subcutaneous at 0, 4 and 24 hours post infection, survival, read-out: Lowest Active Dose
[6] = Candida albicans, A26, sc, read-out: ED50
[7] = read-out: Lowest Active Dose, X-irradiated mice, subcutaneous at 0, 4 and 24 hours post infection, survival

Structure (SMILES)	minimal effective dose [1, 5]	ED50 [2, 6]	MIC [3]	MIC [4]	minimal effective dose [1, 7]	ED50 [2]
CCCCCCCCCCCCCCOc1cccc(C(=O)N[C@H]2C[C@@H](O)[C@@H](O)NC(=O)[C@@H]3[C@@H](O)[C@@H](C)CN3C(=O)[C@H]([C@@H](C)O)NC(=O)[C@H]([C@H](O)[C@@H](O)c3ccc(O)cc3)NC(=O)[C@@H]3C[C@@H](O)CN3C(=O)[C@H]([C@@H](C)O)NC2=O)c1 (X24-[Orn(4R-OH,5R-OH)]T[Hyp][hTyr(3S-OH,4S-OH)]T[Pro(3S-OH,4S-Me)]; lactam 1-C)	> 40 mg/kg	> 50 mg/kg	–	–	–	–
CCCCCCCCCCCCOc1cccc(CC(=O)N[C@H]2C[C@@H](O)[C@@H](O)NC(=O)[C@@H]3[C@@H](O)[C@@H](C)CN3C(=O)[C@H]([C@@H](C)O)NC(=O)[C@H]([C@H](O)[C@@H](O)c3ccc(O)cc3)NC(=O)[C@@H]3C[C@@H](O)CN3C(=O)[C@H]([C@@H](C)O)NC2=O)c1 (X27-[Orn(4R-OH,5R-OH)]T[Hyp][hTyr(3S-OH,4S-OH)]T[Pro(3S-OH,4S-Me)]; lactam 1-C)	20 mg/kg	7.4 mg/kg	–	–	–	–
CCCCCCCC[S+]([O-])c1ccc(C(=O)N[C@H]2C[C@@H](O)[C@@H](O)NC(=O)[C@@H]3[C@@H](O)[C@@H](C)CN3C(=O)[C@H]([C@@H](C)O)NC(=O)[C@H]([C@H](O)[C@@H](O)c3ccc(O)cc3)NC(=O)[C@@H]3C[C@@H](O)CN3C(=O)[C@H]([C@@H](C)O)NC2=O)cc1 (stereo partly drawn) (X28-[Orn(4R-OH,5R-OH)]T[Hyp][hTyr(3S-OH,4S-OH)]T[Pro(3S-OH,4S-Me)]; lactam 1-C)	> 40 mg/kg	56.6 mg/kg	–	–	–	–
CCCCCCCCOc1ccc(OCC(=O)N[C@H]2C[C@@H](O)[C@@H](O)NC(=O)[C@@H]3[C@@H](O)[C@@H](C)CN3C(=O)[C@H]([C@@H](C)O)NC(=O)[C@H]([C@H](O)[C@@H](O)c3ccc(O)cc3)NC(=O)[C@@H]3C[C@@H](O)CN3C(=O)[C@H]([C@@H](C)O)NC2=O)cc1 [drawing 145] (X11-[Orn(4R-OH,5R-OH)]T[Hyp][hTyr(3S-OH,4S-OH)]T[Pro(3S-OH,4S-Me)]; lactam 1-C)	–	–	0.312 μg/disc	80 μg/disc	–	–
CCCCCCCCOc1ccc(C(=O)N[C@H]2C[C@@H](O)[C@@H](O)NC(=O)[C@@H]3[C@@H](O)[C@@H](C)CN3C(=O)[C@H]([C@@H](C)O)NC(=O)[C@H]([C@H](O)[C@@H](O)c3ccc(O)cc3)NC(=O)[C@@H]3C[C@@H](O)CN3C(=O)[C@H]([C@@H](C)O)NC2=O)cc1 [drawing 151] ({Benzoyl(4-octyloxy)}-[Orn(4R-OH,5R-OH)]T[Hyp][hTyr(3S-OH,4S-OH)]T[Pro(3S-OH,4S-Me)]; lactam 1-C)	< 12.5 mg/kg	–	–	–	10 mg/kg	–
CCCCCCCCCCOc1ccc(C(=O)N[C@H]2C[C@@H](O)[C@@H](O)NC(=O)[C@@H]3[C@@H](O)[C@@H](C)CN3C(=O)[C@H]([C@@H](C)O)NC(=O)[C@H]([C@H](O)[C@@H](O)c3ccc(O)cc3)NC(=O)[C@@H]3C[C@@H](O)CN3C(=O)[C@H]([C@@H](C)O)NC2=O)cc1 [drawing 152] ({Benzoyl(4-OC10H21)}-[Orn(4R-OH,5R-OH)]T[Hyp][hTyr(3S-OH,4S-OH)]T[Pro(3S-OH,4S-Me)]; lactam 1-C)	–	8 mg/kg	–	–	5 mg/kg	–
CCCCCCCCCCCCOc1ccc(C(=O)N[C@H]2C[C@@H](O)[C@@H](O)NC(=O)[C@@H]3[C@@H](O)[C@@H](C)CN3C(=O)[C@H]([C@@H](C)O)NC(=O)[C@H]([C@H](O)[C@@H](O)c3ccc(O)cc3)NC(=O)[C@@H]3C[C@@H](O)CN3C(=O)[C@H]([C@@H](C)O)NC2=O)cc1 [drawing 153] ({Benzoyl(4-dodecyloxy)}-[Orn(4R-OH,5R-OH)]T[Hyp][hTyr(3S-OH,4S-OH)]T[Pro(3S-OH,4S-Me)]; lactam 1-C)	2.5 mg/kg	< 5 mg/kg	–	–	≤ 5 mg/kg	3.9 mg/kg
